Laboratory results published in US5585352A, “Method of treating septic shock using thymosin-α 1” (The George Washington University Medical Center, priority 1994, dated 1996).
No end group written: not given here.

Tests used:
endotoxic mice = test: Survival of Swiss Webster mice following lethal endotoxin dose and Tα1; format: in vivo
Description: (§1) Swiss-Webster mice 4-6 weeks of age (20-25 g) were divided into 2 groups: endotoxic mice (endotoxin 60 mg/kg i.p. in acute treatment) and endotoxic mice treated with 3 injections of 100 μg Tα1 (5 minutes, 2 and 4 hours post administration of the endotoxin).
Using the same materials and methods as in example 1, the time and dose-dependency of the protective effect of Tα1 on endotoxin lethality were studied.

malonyldialdehyde [1] = test: Blood hydroperoxide (malonyldialdehyde) levels in mice treated with lethal doses of endotoxin; format: in vivo, Swiss-Webster mice
Description: as §1
*Whole blood samples (0.5 ml) were obtained by tail bleds 1 hour after
endotoxin administration

glutathione (RBC GSH) [2] = test: Erythrocyte glutathione levels in mice treated with lethal doses of endotoxin; format: in vivo, Swiss-Webster mice
Description: as §1
*Total erythrocyte glutathione, 98% of which is in the reduced form (GSH)
was determined by the enzymatic "cyclic method."-

[3] = test system: Cerebellar cortex cyclic GMP; test: cGMP cerebellar levels in mice treated with lethal doses of endotoxin; format: in vivo, Swiss-Webster mice
Description: as §1

TNF-α = test: Serum TNF-α levels in mice treated with lethal doses of endotoxin; format: in vivo, Swiss-Webster mice
Description: as §1
(§2) *Mice were pretreated with SOD (super oxide dismatase), 30 minutes before
(§3) endotoxin administration XX blood for determined of TNFα and
(§4) IL1α levels was collected 1 hr after endotoxin administration.
(§5) Using the same methods and materials as in examples 1 and 2, the effect which Tα1 has on blood levels of IL-1α, TNF-α, PAG, Txβ2 and 6-keto-PGF1 α, which are pathological mediators of endotoxin induced lethality, was studied.

IL-1α = test: Serum IL-1α levels in mice treated with lethal doses of endotoxin; format: in vivo, Swiss-Webster mice
Description: as §1, §2, §3, §4, §5

PAF = PAF blood levels in mice after lethal dose of endotoxin; format: in vivo, Swiss-Webster mice
Description: as §1, §5

Txβ2 = Txβ2 plasma levels in mice after lethal dose of endotoxin; format: in vivo, Swiss-Webster mice
Description: as §1, §5

6-keto-PGF1α = 6-keto-PGF1α plasma levels in mice after lethal dose of endotoxin; format: in vivo, Swiss-Webster mice
Description: as §1, §5

Rats with Septic Shock = test: Survival in septic shock model in rats (peritonitis by cecal ligation and puncture); format: in vivo, Sprague-Dawley rats; settings: for Survival of Sprague-Dawley rats, 48 hr / Survival of Sprague-Dawley rats, 72 hr / Survival of Sprague-Dawley rats, 24 hr: rats with peritonitis, both groups got antibiotic (gentamicin sulfate, 1 mg/rat), 10 at 0 hr; for Survival of Sprague-Dawley rats, 48 hr / Survival of Sprague-Dawley rats, 72 hr: thymosin α1 1 mg/rat × 3; for Survival of Sprague-Dawley rats, 24 hr: thymosin α1 1 mg/rat × 3 at 0, 2 and 4 hr post induction; for Number of Rats Alive, 24 h / Number of Rats Alive, 48 h / Number of Rats Alive, 72 h: Rats with Septic Shock + Tα1 1 mg/rat × 3, 10 alive at 0 h
From the text: (§6) Using a septic shock model in rats (Sprague-Dawley, male, 200-225 g each), the effect of thymosin α1 alone and together with antibiotics was studied. Peritonitis was induced in rats in the following way. A 1-cm incision was made into the peritoneal which exposed the cecum. A tight ligature was placed around the cecum with 4-0 suture distal to the insertion of the small bowel, forming an area of devitalized tissue while maintaining bowel continuity. A puncture wound was made with 16-gauge needle into the anti-mesenteric surface of the cecum and a small amount of fecal contents was expressed through the wound. The cecum was replaced into the peritoneal cavity, and the anterior peritoneal wall and skin were closed with surgical staples. Each animal was given a bolus of normal saline (15 ml/kg) for hydration and allowed to recover overnight.
*gentamicin sulfate, 1 mg/rat
(§7) **At 0 hr, 2 hr, and 4 hr post induction of peritonitis

TNFα = TNFα levels in a septic shock model in rat; format: in vivo, Sprague-Dawley rats; settings: Rats with Septic Shock + Tα1 1 mg/rat × 3
From the text: as §6, §7

IL1 α = test: IL1α levels in a septic shock model in rat; format: in vivo, Sprague-Dawley rats; settings: Rats with Septic Shock + Tα1 1 mg/rat × 3
From the text: as §6, §7

malonyldialdehyde [4] = test: Lipid peroxidation (blood malonyldialdehyde) in a septic shock model in rat; format: in vivo, Sprague-Dawley rats; settings: Rats with Septic + Tα1 1 mg/rat × 3
From the text: as §6, §7

glutathione (RBC GSH) [5] = test: Glutathione levels in a rat septic shock model; format: in vivo, Sprague-Dawley rats; settings: Rats with Septic Shock + Tα1 mg/rat × 3
From the text: as §6, §7

6-keto-PGF1 = 6-keto-PGF1 levels in a septic shock model in rat; format: in vivo, Sprague-Dawley rats; settings: Rats with Septic Shock + Tα1 1 mg/rat × 3
From the text: as §6, §7

T × β2 = test: Txβ2 levels in a septic shock model in rat; format: in vivo, Sprague-Dawley rats; settings: Rats with Septic Shock + Tα1 1 mg/rat × 3
From the text: as §6, §7

[6] = test system: blood free radical levels; test: Blood free radical levels; format: in vivo; settings: compared with SOD
[7] = Table I, Endotoxin 60 mg/kg + Tα1 100 μg 3×, 7 alive at 0 hrs
[8] = Table II, Endotoxin 60 mg/kg + Tα1 100 μg 3×, 8 alive at 0 hr.
[9] = Table VIII, Tα1 10 μg, 3×, immediately following, 2 and 4 hrs. after endotoxin, 8 alive at 0 hrs
[10] = Table VIII, Tα1 100 μg, 3×, 2, 4 and 6 hrs. after endotoxin, 8 alive at 0 hrs
[11] = Table VIII, Tα1 100 μg, 3×, immediately following, 2 and 4 hrs. after endotoxin, 8 alive at 0 hrs
[12] = during sepsis, species not given
[13] = Table VI, serum, Endotoxin 60 mg/kg + Tα1
[14] = Table VII, serum, pretreatment with SOD 3.3 × 10^4 μ/kg (30 minutes before endotoxin) or Tα1 100 μg/mice, blood 1 hr after endotoxin
[15] = Table XIV, Endotoxin 60 mg/kg + Tα1 100 μg administered immediately following
[16] = after administration of a lethal dose of endotoxin
[17] = Table IX, Endotoxin 60 mg/kg + Tα1 100 μg administered immediately following
[18] = Table X, Endotoxin 60 mg/kg + Tα1 100 μg administered immediately following
[19] = Table XIII, Endotoxin 60 mg/kg + Tα1 100 μg administered immediately following
[20] = Table XI, Endotoxin 60 mg/kg + Tα1 100 μg administered immediately following
[21] = Table XII, Endotoxin 60 mg/kg + Tα1 100 μg administered immediately following
[22] = first of two unlabelled columns
[23] = second of two unlabelled columns

## Thymosin α1 (SDAAVDTSSEITTKDLKEKKEVVEEAEN; ends and bridges not checked; UniProt P06454 2-29, looked up) [Tα1, peptide originally derived from the Thymus gland, 28 amino acids; synthetic Tα1 prepared by solid phase peptide synthesis]
Endotoxic mice; Table I, Endotoxin 60 mg/kg + Tα1 100 μg 3× (5 minutes, 2 and 4 hours post endotoxin), 7 alive at 0 hrs
  Number of Mice Alive, 24 hrs: 7
Endotoxic mice; [7]
  Number of Mice Alive, 48 hrs: 7
  Number of Mice Alive, 72 hrs: 7
Endotoxic mice; [8]
  Number of Mice Alive, 24 hr.: 8
  Number of Mice Alive, 48 hr.: 8
  Number of Mice Alive, 72 hr.: 8
  Number of Mice Alive, 7 day: 8
  Number of Mice Alive, 14 day: 8
Endotoxic mice; Table VIII, Endotoxin 60 mg/kg + Tα1 10 μg, 3×, immediately following, 2 and 4 hrs. after endotoxin, 8 alive at 0 hrs
  Number of Mice Alive, 24 hrs: 8
Endotoxic mice; Table VIII, Endotoxin 60 mg/kg + Tα1 100 μg, 3×, 2, 4 and 6 hrs. after endotoxin, 8 alive at 0 hrs
  Number of Mice Alive, 24 hrs: 8
Endotoxic mice; Table VIII, Endotoxin 60 mg/kg + Tα1 100 μg, 3×, immediately following, 2 and 4 hrs. after endotoxin, 8 alive at 0 hrs
  Number of Mice Alive, 24 hrs: 8
Endotoxic mice; [9]
  Number of Mice Alive, 48 hrs: 5
  Number of Mice Alive, 72 hrs: 5
  Number of Mice Alive, 96 hrs: 5
  Number of Mice Alive, 120 hrs: 5
Endotoxic mice; [10]
  Number of Mice Alive, 48 hrs: 8
  Number of Mice Alive, 72 hrs: 8
  Number of Mice Alive, 96 hrs: 8
  Number of Mice Alive, 120 hrs: 8
Endotoxic mice; [11]
  Number of Mice Alive, 48 hrs: 8
  Number of Mice Alive, 72 hrs: 8
  Number of Mice Alive, 96 hrs: 8
  Number of Mice Alive, 120 hrs: 8
Endotoxic mice; Tα1 administered 3 times post administration of endotoxin, Tables I and II
  survival rate of mice treated with endotoxin: 100%
Endotoxic mice; administered three times, endotoxin lethality in mice
  effective protective dose: 100 µg
Endotoxic mice; given immediately following, 2 and 4 hours after, or 2, 4 and 6 hours after endotoxin treatment
  protective effect on endotoxin toxicity: had protective effect on endotoxin toxicity
Malonyldialdehyde [1]; Endotoxin 60 mg/kg + Tα1 100, whole blood 1 hour after endotoxin administration
  Blood Levels of malonyldialdehyde: 16.9 ± 1.36 nMol MDA
Malonyldialdehyde [1]; [12]
  peroxidation of lipids in blood: returned to normal or about normal
Glutathione (RBC GSH) [2]; Endotoxin 60 mg/kg + Tα1 100 μg/mouse, total erythrocyte glutathione
  RBC GSH: 1.12 ± 0.12 μmoles/ml cells
Glutathione (RBC GSH) [2]; [12]
  circulating blood levels of glutathione: returns circulatory gluthathine leves to normal or about normal
[3]; Endotoxin 60 mg/kg i.p. + Tα1 100 μg
  Cerebellar cortex cyclic GMP: 14.6 ± 1.2 pmol per mg/protein
[3]; administration during sepsis
  cerebellar cGMP levels: decreases cerebellar cGMP levels
TNF-α; [13]
  TNF-α, 1 hr: 638 ± 57 pg/mL
  TNF-α, 3 hr: 426 ± 37 pg/mL
  TNF-α, 5 hr: 297 ± 27 pg/mL
TNF-α; [14]
  TNF-α: 285 ± 23.6 pg/mL
TNF-α; [15]
  TNF-α (serum levels), 1 hr: 783 pg/mL
  TNF-α (serum levels), 3 hr: 508 pg/mL
  TNF-α (serum levels), 5 hr: 429 pg/mL
TNF-α; [16]
  TNF-α serum levels: decreased
IL-1α; [17]
  IL-1α (serum levels), 1 hr: 83 ± 7.1 pg/mL
  IL-1α (serum levels), 3 hr: 165 ± 13.7 pg/mL
IL-1α; [14]
  IL-1 α: 109 ± 71 pg/mL
IL-1α; [16]
  IL-1α serum levels: decreased
PAF; [18]
  PAF (plasma levels), 0.5 hr: 48 ± 3 pg/mL
  PAF (plasma levels), 1 hr: 136 ± 9 pg/mL
  PAF (plasma levels), 2 hr: 68 ± 4 pg/mL
  PAF (plasma levels), 3 hr: 32 ± 2 pg/mL
PAF; [19]
  PAF (serum levels), 1 hr: 783 pg/mL
  PAF (serum levels), 3 hr: 508 pg/mL
  PAF (serum levels), 5 hr: 429 pg/mL
PAF; [16]
  PAF plasma levels: decreased
Txβ2; [20]
  T × β2 (plasma levels), 0.5 hr.: 910 ± 85 pg/mL
  T × β2 (plasma levels), 2 hr: 530 ± 47 pg/mL
Txβ2; Table XI, Endotoxin 60 mg/kg + Tα1 100 μg administered immediately following, spread 185 printed
  T × β2 (plasma levels), 1 hr: 1921 pg/mL
Txβ2; Table XI, Endotoxin 60 mg/kg + Tα1 100 μg administered immediately following, spread 260 printed
  T × β2 (plasma levels), 3 hr: 391 pg/mL
Txβ2; [16]
  Txβ2 plasma levels: decreased
6-keto-PGF1α; [21]
  6-keto-PGF1α (plasma levels), 0.5 hr.: 224 ± 19 pg/mL
  6-keto-PGF1α (plasma levels), 1 hr: 745 ± 62 pg/mL
  6-keto-PGF1α (plasma levels), 2 hr: 341 ± 33 pg/mL
  6-keto-PGF1α (plasma levels), 3 hr: 205 ± 19 pg/mL
6-keto-PGF1α; [16]
  6-keto-PGF1 α plasma levels: decreased
Rats with Septic Shock; Table XV
  Survival of Sprague-Dawley rats, 48 hr: 6
  Survival of Sprague-Dawley rats, 72 hr: 6
  Survival of Sprague-Dawley rats, 24 hr: 8
Rats with Septic Shock; Table XV, with antibiotic
  survival of rats: increased the survival of rats
Rats with Septic Shock; Table XX
  Number of Rats Alive, 24 h: 9
  Number of Rats Alive, 48 h: 9
  Number of Rats Alive, 72 h: 5
Rats with Septic Shock; Table XXI
  Number of Rats Alive, 24 h: 8
  Number of Rats Alive, 48 h: 7
  Number of Rats Alive, 72 h: 3
Rats with Septic Shock; Tables XX and XXI
  survival rate of rats with septic shock: increases the survival rate of rats with septic shock
TNFα
  TNFα: 1231 ± 129 pg/mL
IL1 α
  IL1 α: 689 ± 53 pg/mL
Malonyldialdehyde [4]; [22]
  Blood Levels of malonyldialdehyde: 17.1 ± 1.6 nNol MDA
Malonyldialdehyde [4]; [23]
  Blood Levels of malonyldialdehyde: 21.9 ± 2.3 nNol MDA
Glutathione (RBC GSH) [5]; [22]
  RBC GSH: 1.29 ± 0.07 μmoles/ml cells
Glutathione (RBC GSH) [5]; [23]
  RBC GSH: 1.20 ± 0.085 μmoles/ml cells
6-keto-PGF1
  6-keto-PGF1: 1132 ± 96 pg/mL
T × β2
  T × β2: 2353 ± 197 pg/mL
[6]
  blood free radical levels: reduce blood free radical levels almost as much as SOD

## gentamicin sulfate [antibiotic, reference compound]
Rats with Septic Shock; Table XV
  Survival of Sprague-Dawley rats, 48 hr: 1
  Survival of Sprague-Dawley rats, 72 hr: 0
  Survival of Sprague-Dawley rats, 24 hr: 1
